According to patent US7202218B2, “Oligopeptide antagonist of interleukin-6” (National Taiwan University, priority 2005, dated 2007):
Where no end group is shown, it is not given here.

Experiments:
[1] = tested on: Ras/MAPK and PI3-K/Akt signaling pathways; experiment: Western blot of IL-6-induced Akt and ERK1/2 phosphorylation in C33A cells; type: cell-based, human; settings: IL-6 50 ng/mL, peptide 50 μmol/L, FIG. 4A
Experimental: (§1) 80% confluent C33A cells were starved for 24 hours and then treated with human IL-6 protein (50 ng/mL) in the presence or absence of S1 peptide (50 μmol/L) or S7 peptide (50 μmol/L). Cell lysates were obtained and subjected to SDS-PAGE separation and Western blot analysis using various antibodies for immunoblotting, such as anti-phospho-ERK1/2, anti-phospho-Akt, anti-ERK1/2, and anti-Akt.

VEGF-A = VEGF-A secretion, quantitative sandwich ELISA of conditioned medium; type: cell-based; settings: C33A, RPMI 8226 and BCC cells (all three cell lines); 24 hours; FIG. 5
Experimental: (§2) C33A cervical cancer cells, RPMI 8226 multiple myeloma cells and basal cell carcinoma (BCC) cells, vectors (negative control) were cultivated respectively in DMEM containing 10% FBS, penicillin (100 units/ml), and streptomycin (100 μg/mL) as well as IL-6 protein. At 90% confluence, culture medium was replaced with serum-free medium. IL-6 containing C33A cells were incubated with S1 or S7 peptide for another 24 hours. Conditioned medium (CM) was collected after centrifugation of cellular debris.
The conditioned medium (CM) was concentrated using an Amicon ultracentrifugation device (Millipore). The concentrations of VEGF-A in culture supernatants were determined with quantitative sandwich ELISA assay according to the manufacturer's instruction. Briefly, cell supernatant (50 μl) was incubated with 50 μl of assay diluents for 2 hours at room temperature in a 96-well tissue culture plate coated with monoclonal antibodies against VEGF-A. After five consecutive washes, a conjugate consisting of polyclonal VEGF-A antibodies and HRP was added. The mixture was incubated for 2 hours at room temperature. Following the subsequent addition of a color reagent, absorbance was read at 450 nm using a Thermo-Max microplate reader (Molecular Devices Co., Menlo Park, Calif.).

[2] = biological target: T1, IL-6Rα in different cell lines (Homo sapiens, UniProt P08887); experiment: In vitro competition assay of synthetic peptides on cell lines; type: cell-based; settings: synthetic peptide; FIG. 3
T1 construct: all membrane-type IL-6Rα-expressing cell lines; endogenous in cells
T1 sequence (P08887 20-468): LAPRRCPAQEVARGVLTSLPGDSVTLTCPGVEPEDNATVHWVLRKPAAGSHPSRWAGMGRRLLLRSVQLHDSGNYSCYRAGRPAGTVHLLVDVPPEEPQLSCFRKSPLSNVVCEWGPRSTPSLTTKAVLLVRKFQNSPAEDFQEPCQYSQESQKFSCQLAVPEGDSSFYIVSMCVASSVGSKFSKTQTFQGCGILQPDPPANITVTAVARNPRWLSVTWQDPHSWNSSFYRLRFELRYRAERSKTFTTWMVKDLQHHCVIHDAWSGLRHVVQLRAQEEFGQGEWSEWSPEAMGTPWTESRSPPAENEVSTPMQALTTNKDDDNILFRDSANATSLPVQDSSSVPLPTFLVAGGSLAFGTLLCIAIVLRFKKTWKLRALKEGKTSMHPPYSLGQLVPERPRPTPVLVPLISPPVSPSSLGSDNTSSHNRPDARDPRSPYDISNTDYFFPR
Experimental: The binding affinities to IL-6Rα of the 7 independent peptide sequences of the IR-6Rα-binding clones selected from phage display peptide library (Table 1) were confirmed. The phage clones with the inserted DNA encoding these 7 different peptide sequences (phage S1˜S7) were added into IL-6Rα coated 96-well cell culture plates (10^12 pfu/ml) and incubated with IL-6Rα for 1 hour. IL-6 protein (50 ng/ml, 100 μl) was added to the wells and incubated at room temperature for 2 hours. The plates were thoroughly washed with 0.1% BSA (bovine serum albumin)/PBS (phosphate-buffered saline) buffer (pH 8.5). Finally, biotin-conjugated anti-IL-6 monoclonal antibody, horseradish peroxidase (HRP)-conjugated streptavidin and tetramethyl benzidine (TMB) substrate solution were used to perform the known phage Enzyme-Linked Immunosorbent Assay (ELISA) to determine the L-6 protein bound to the cell plates.
Oligopeptides encoded by the inserted DNA in phages S7 and S1 (labeled as ‘peptide S7’ (SEQ ID NO: 7) or ‘peptide S1’ (SEQ ID NO: 1) hereafter) were produced by the known peptide synthesis method. The binding assay described in Example 1 was carried out, but using peptide S7 or peptide S1 (negative control) instead of phage clones, and using cell lines instead of IL-6Rα to perform competition assay and get the result shown in FIG. 3.

[3] = tested on: IL-6-induced angiogenesis; experiment: Matrigel plug assay, hemoglobin level; type: in vivo; settings: BALB/c nude mice; plugs recovered after 7 days; FIG. 8
Experimental: On the other hand, Matrigel plug assay was performed to analyze the inhibiting effect on IL-6-induced angiogenesis of peptide S7. Matrigel (500 μl) containing CM from cells treated in various ways was […] into 4- to 8-week-old female BALB/c nude mice at sites lateral to the abdominal midline. Aforementioned CM was obtained either from vector control cells or from IL-6 overexpressed C33A cells in the presence or absence of peptide S7. The Matrigel plugs were recovered after 7 days of implementation, dissolved in PBS, and incubated at 4° C. overnight. Hemoglobin levels were determined using Drabkin's solution (Sigma Chemical) according to the manufacturer's instructions to get the result shown in FIG. 8.

Mcl-1 protein = experiment: Western blot of IL-6-induced Mcl-1 protein in C33A cells; type: cell-based, human; settings: FIG. 4B
Experimental: as §1
Equal amounts of cell lysates (75 μg) were resolved by SDS-PAGE, transferred to polyvinylidene difluoride membranes, and probed with specific anti-Mcl-1 antibodies as described above. β-actin served as the internal loading control to get the result shown in FIG. 4A.

HUVECs [4] = experiment: Capillary tube-like formation by HUVECs on Matrigel; type: cell-based, human; settings: 6 hours, FIG. 7
Experimental: In vitro Assessment using a growth factor-reduced basement membrane Matrigel matrix was carried out to evaluate capillary tube-like formation. The Matrigel was thawed at 4° C. and mixed to homogeneity. The bottom of 96-well cell culture plates were coated with a thin layer of Matrigel (40 μl) and allow the Matrigel to polymerize at 37° C. for 30 minutes. HUVECs were resuspended in M199 medium containing 1% serum to a density of 2.5×10^4 cells/100 μl, mixed with 100 μl of M199 medium containing 1% serum and 100 μl CM from either C33A/neo or C33A/IL-6 cells treated in various ways, and finally plated onto the Matrigel-coated surface. Six hours later, cells were fixed in 4% paraformaldehyde and stained with 0.1% crystal violet. Three microscopic fields were selected at random and photographed, and the number of tube-like structures per field was determined to get the result shown in FIG. 7.

HUVECs [5] = experiment: HUVEC proliferation induced by IL-6-CM, trypan blue exclusion; type: cell-based, human; settings: CM from IL-6-overexpressed cells; 24 hours; FIG. 6
Experimental: as §2
HUVECs were plated onto six-well dishes (Falcon, Becton Dickinson) at a concentration of 2.5×10^5 cells per well in M199 medium supplemented with 10% FBS. One day after seeding, HUVECs were stimulated with CM from cells treated in various ways respectively, where the CM was mixed with M199 medium. Twenty-four hours later, the viable cells were counted using a trypan blue exclusion method.
For the trypan blue exclusion assay, cells were washed with PBS, trypsinized, and then resuspended in 1 ml PBS. Trypan blue-stained cells were then counted using a modified Neubauer hemocytometer under a phase-contrast light microscope.

C33A/IL-6 cells = experiment: Tumor growth inhibition in SCID mice injected with C33A/IL-6 cells; type: in vivo; settings: 50 mg/kg i.p. every 2 days, FIG. 9
Experimental: Six- to 8-week-old female severe combined immunodeficient (SCID) mice were […] with 1×10^6 C33A/neo or C33A/IL-6 cells. Beginning 3 days later, S1 or S7 peptide (50 mg/kg, dissolved in PBS) was injected i.p. every 2 days. Tumor development was followed in measurements of length (L) and width (W).

| Substance | inhibition of IL-6-induced phosphorylated Akt level [1] | inhibition of IL-6-induced phosphorylated ERK1/2 MAPK level [1] | IL-6-mediated VEGF-A secretion (VEGF-A) | antagonism of the binding of IL-6 to IL-6Rα in different cell lines [2] | hemoglobin induction in Matrigel plugs containing C33A/IL-6-CM [3] | IL-6-induced up-regulation of Mcl-1 protein (Mcl-1 protein) | C33A/IL-6-CM induced tube-like cell cord formation (HUVECs [4]) | IL-6-CM induced HUVECs proliferation (HUVECs [5]) | IL-6-induced tumor growth (C33A/IL-6 cells) | tumor growth inhibition at the end of the experiment (C33A/IL-6 cells; tumor volume) [%] |
| --- | --- | --- | --- | --- | --- | --- | --- | --- | --- | --- |
| LSLITRL [peptide S7] | significantly inhibited | significantly inhibited | significantly decreased | antagonize the binding | almost completely inhibited | antagonized | almost completely inhibited | greatly attenuated | significantly reduced | 76 |
| LSLMPRL [peptide S1, negative control peptide, reference compound] | not | not | – | – | – | – | – | not | – | – |
